Source: patent publication US12077503B2, “Substituted cyclic amides and their use as herbicides” (FMC CORPORATION, priority 2015, dated 2024)

Tests used:
Type in all cases: in vivo
[1] = test system: barnyardgrass (Echinochloa crus-galli); experiment: Test A preemergence; conditions: for Plant response rating, Barnyardgrass: 125 g ai/ha; for Barnyardgrass plant response rating (0 to 100 scale, 0 is no effect, 100 is complete control): 500 g ai/ha, visual injury approx. 10 d
Procedure, shortened: (§1)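 Ratings of 0 (no effect) to 100 (complete control) come from visual comparison with untreated controls roughly 10 d after treatment. Test chemicals, formulated in a non-phytotoxic solvent mixture with surfactant, were applied either as a preemergence directed soil spray on seeded soil or postemergence to one- to two-leaf plants 2 to 10 cm tall.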

Kochia (Kochia scoparia) [2] = experiment: Test A preemergence; conditions: for Plant response rating, Kochia: 125 g ai/ha; for Kochia plant response rating (0 to 100 scale, 0 is no effect, 100 is complete control): 500 g ai/ha, visual injury approx. 10 d
Procedure, shortened: as §1

[3] = test system: ragweed (common ragweed, Ambrosia elatior); experiment: Test A preemergence; conditions: for Plant response rating, Ragweed: 125 g ai/ha; for Ragweed plant response rating (0 to 100 scale, 0 is no effect, 100 is complete control): 500 g ai/ha, visual injury approx. 10 d
Procedure, shortened: as §1

[4] = test system: ryegrass, Italian (Italian ryegrass, Lolium multiflorum); experiment: Test A preemergence; conditions: for Plant response rating, Ryegrass, Italian: 125 g ai/ha; for Ryegrass, Italian plant response rating (0 to 100 scale, 0 is no effect, 100 is complete control): 500 g ai/ha, visual injury approx. 10 d
Procedure, shortened: as §1

[5] = test system: pigweed (Amaranthus retroflexus); experiment: Test A preemergence; conditions: for Plant response rating, Pigweed: 125 g ai/ha; for Pigweed plant response rating (0 to 100 scale, 0 is no effect, 100 is complete control): 500 g ai/ha, visual injury approx. 10 d
[6] = test system: giant foxtail (Setaria faberii); experiment: Test A preemergence; conditions: for Plant response rating, Foxtail, Giant: 125 g ai/ha; for Foxtail, Giant plant response rating (0 to 100 scale, 0 is no effect, 100 is complete control): 500 g ai/ha, visual injury approx. 10 d
Procedure, shortened: as §1

[7] = test system: barnyardgrass (Echinochloa crus-galli); experiment: Test B flooded paddy test; conditions: Flood, 0 to 100 scale where 0 is no effect and 100 is complete control, 13 to 15 d
Procedure, shortened: (§2)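 Percent control, visually estimated after 13–15 d in the greenhouse on a 0–100 basis, compares treated pots with untreated ones; compound was put into paddy water 3 cm above the soil when plants had two leaves.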

rice (Oryra sativa) = experiment: Test B flooded paddy test; conditions: Flood, 0 to 100 scale where 0 is no effect and 100 is complete control, 13 to 15 d
Procedure, shortened: as §2

[8] = test system: ducksalad (Heteranthera limosa); experiment: Test B flooded paddy test; conditions: Flood, 0 to 100 scale where 0 is no effect and 100 is complete control, 13 to 15 d
Procedure, shortened: as §2

[9] = test system: sedge, umbrella (small-flower umbrella sedge, Cyperus difformis); experiment: Test B flooded paddy test; conditions: Flood, 0 to 100 scale where 0 is no effect and 100 is complete control, 13 to 15 d
Procedure, shortened: as §2

[10] = test system: barnyardgrass (Echinochloa crus-galli); experiment: Test A postemergence; conditions: for Barnyardgrass plant response rating: visual injury rating on 0 to 100 scale (0 no effect, 100 complete control), approx. 10 d
Procedure, shortened: as §1

Kochia (Kochia scoparia) [11] = experiment: Test A postemergence; conditions: for Kochia plant response rating: visual injury rating on 0 to 100 scale (0 no effect, 100 complete control), approx. 10 d
Procedure, shortened: as §1

[12] = test system: ragweed (common ragweed, Ambrosia elatior); experiment: Test A postemergence; conditions: for Ragweed plant response rating: visual injury rating on 0 to 100 scale (0 no effect, 100 complete control), approx. 10 d
Procedure, shortened: as §1

[13] = test system: ryegrass, Italian (Italian ryegrass, Lolium multiflorum); experiment: Test A postemergence; conditions: for Ryegrass, Italian plant response rating: visual injury rating on 0 to 100 scale (0 no effect, 100 complete control), approx. 10 d
Procedure, shortened: as §1

[14] = test system: pigweed (Amaranthus retroflexus); experiment: Test A postemergence; conditions: for Pigweed plant response rating: visual injury rating on 0 to 100 scale (0 no effect, 100 complete control), approx. 10 d
Procedure, shortened: as §1

[15] = test system: blackgrass (Alopecurus myosuroides); experiment: Test A postemergence; conditions: for Blackgrass plant response rating: visual injury rating on 0 to 100 scale (0 no effect, 100 complete control), approx. 10 d
Procedure, shortened: as §1

corn (Zea mays) = experiment: Test A postemergence; conditions: for Corn plant response rating: visual injury rating on 0 to 100 scale (0 no effect, 100 complete control), approx. 10 d
Procedure, shortened: as §1

[16] = test system: wheat (Triticum aestivum); experiment: Test A postemergence; conditions: for Wheat plant response rating: visual injury rating on 0 to 100 scale (0 no effect, 100 complete control), approx. 10 d
Procedure, shortened: as §1

[17] = test system: Galium (catchweed bedstraw, Galium aparine); experiment: Test A postemergence; conditions: for Galium plant response rating: visual injury rating on 0 to 100 scale (0 no effect, 100 complete control), approx. 10 d
Procedure, shortened: as §1

[18] = test system: giant foxtail (Setaria faberii); experiment: Test A postemergence; conditions: for Foxtail, Giant plant response rating: visual injury rating on 0 to 100 scale (0 no effect, 100 complete control), approx. 10 d
Procedure, shortened: as §1

[19] = preemergence, 0 to 100 scale (0 no effect, 100 complete control)
[20] = 500 g ai/ha, postemergence, 0 to 100 scale, 0 no effect, 100 complete control
[21] = Preemergence, visual injury after approximately 10 d, 0 to 100 scale where 0 is no effect and 100 is complete control
[22] = 125 g ai/ha, postemergence, visual rating after approx. 10 d, 0 to 100 scale (0 no effect, 100 complete control)
[23] = Postemergence, 500 g ai/ha, 0 to 100 scale where 0 is no effect and 100 is complete control

O=C1NCC(c2cccc(OC(F)F)c2)C1C(=O)Nc1ccccc1OC(F)F (centres unmarked) [Compound 427]
80: Kochia plant response rating (0 to 100 scale, 0 is no effect, 100 is complete control) (Kochia (Kochia scoparia) [2]; Preemergence) | Plant response rating, Barnyardgrass [10, 20] | Plant response rating, Foxtail, Giant [18, 20]
90: Barnyardgrass plant response rating (0 to 100 scale, 0 is no effect, 100 is complete control) ([1]; Preemergence) | Plant response rating, Foxtail, Giant [6, 19] | Foxtail, Giant plant response rating (0 to 100 scale, 0 is no effect, 100 is complete control) ([6]; Preemergence)
100: Plant response rating, Ducksalad ([8]; 500 g ai/ha)
50: Plant response rating, Galium [17, 20] | Foxtail, Giant plant response rating ([18]; 125 g ai/ha, postemergence)
30: Plant response rating, Kochia (Kochia (Kochia scoparia) [2]; [19]) | Ryegrass, Italian plant response rating (0 to 100 scale, 0 is no effect, 100 is complete control) ([4]; Preemergence)
60: Barnyardgrass plant response rating ([10]; 125 g ai/ha, postemergence)
40: Plant response rating, Barnyardgrass [1, 19] | Ragweed plant response rating (0 to 100 scale, 0 is no effect, 100 is complete control) ([3]; Preemergence) | Pigweed plant response rating (0 to 100 scale, 0 is no effect, 100 is complete control) ([5]; Preemergence) | Plant response rating, Barnyardgrass ([7]; 500 g ai/ha) | Plant response rating, Blackgrass [15, 20] | Galium plant response rating ([17]; 125 g ai/ha, postemergence)
0: Plant response rating, Ragweed [3, 19] | Plant response rating, Ryegrass, Italian [4, 19] | Plant response rating, Pigweed [5, 19] | Plant response rating, Rice (rice (Oryra sativa); 500 g ai/ha) | Plant response rating, Sedge, Umbrella ([9]; 500 g ai/ha) | Kochia plant response rating (Kochia (Kochia scoparia) [11]; 125 g ai/ha, postemergence) | Ragweed plant response rating ([12]; 125 g ai/ha, postemergence) | Ryegrass, Italian plant response rating ([13]; 125 g ai/ha, postemergence) | Pigweed plant response rating ([14]; 125 g ai/ha, postemergence) | Plant response rating, Pigweed [14, 20] | Corn plant response rating (corn (Zea mays); 125 g ai/ha, postemergence) | Wheat plant response rating ([16]; 125 g ai/ha, postemergence)
20: Plant response rating, Kochia (Kochia (Kochia scoparia) [11]; [20]) | Plant response rating, Ragweed [12, 20] | Plant response rating, Ryegrass, Italian [13, 20] | Blackgrass plant response rating ([15]; 125 g ai/ha, postemergence) | Plant response rating, Corn (corn (Zea mays); [20]) | Plant response rating, Wheat [16, 20]

O=C1NCC(c2cccc(C(F)(F)F)c2F)C1C(=O)Nc1ccccc1F (centres unmarked) [Compound 590]
30: Ryegrass, Italian plant response rating (0 to 100 scale, 0 is no effect, 100 is complete control) ([4]; Preemergence) | Plant response rating, Kochia (Kochia (Kochia scoparia) [11]; [23]) | Plant response rating, Ryegrass, Italian [13, 22] | Plant response rating, Ryegrass, Italian [13, 23] | Plant response rating, Galium [17, 23]
20: Kochia plant response rating (0 to 100 scale, 0 is no effect, 100 is complete control) (Kochia (Kochia scoparia) [2]; Preemergence) | Plant response rating, Wheat [16, 22] | Plant response rating, Galium [17, 22]
0: Plant response rating, Kochia (Kochia (Kochia scoparia) [2]; [21]) | Plant response rating, Ragweed [3, 21] | Plant response rating, Ryegrass, Italian [4, 21] | Plant response rating, Pigweed [5, 21] | Pigweed plant response rating (0 to 100 scale, 0 is no effect, 100 is complete control) ([5]; Preemergence) | Plant response rating, Rice (rice (Oryra sativa); 250 g ai/ha) | Plant response rating, Sedge, Umbrella ([9]; 250 g ai/ha) | Plant response rating, Kochia (Kochia (Kochia scoparia) [11]; [22]) | Plant response rating, Ragweed [12, 22] | Plant response rating, Ragweed [12, 23] | Plant response rating, Pigweed [14, 22] | Plant response rating, Pigweed [14, 23]
90: Plant response rating, Barnyardgrass [1, 21] | Barnyardgrass plant response rating (0 to 100 scale, 0 is no effect, 100 is complete control) ([1]; Preemergence) | Plant response rating, Foxtail, Giant [6, 21] | Foxtail, Giant plant response rating (0 to 100 scale, 0 is no effect, 100 is complete control) ([6]; Preemergence) | Plant response rating, Ducksalad ([8]; 250 g ai/ha) | Plant response rating, Barnyardgrass [10, 22] | Plant response rating, Barnyardgrass [10, 23] | Plant response rating, Foxtail, Giant [18, 22] | Plant response rating, Foxtail, Giant [18, 23]
60: Plant response rating, Barnyardgrass ([7]; 250 g ai/ha)
50: Plant response rating, Blackgrass [15, 22] | Plant response rating, Corn (corn (Zea mays); [22])
70: Plant response rating, Blackgrass [15, 23] | Plant response rating, Corn (corn (Zea mays); [23]) | Plant response rating, Wheat [16, 23]

C=C(C)CN1CC(c2cccc(C(F)(F)F)c2)C(C(=O)Nc2cccc(F)c2F)C1=O (centres unmarked) [Compound 479]
30: Barnyardgrass plant response rating (0 to 100 scale, 0 is no effect, 100 is complete control) ([1]; Preemergence)
50: Plant response rating, Barnyardgrass [10, 20]
80: Plant response rating, Foxtail, Giant [6, 19]
90: Foxtail, Giant plant response rating (0 to 100 scale, 0 is no effect, 100 is complete control) ([6]; Preemergence)
20: Plant response rating, Ducksalad ([8]; 250 g ai/ha)
0: Plant response rating, Barnyardgrass [1, 19] | Plant response rating, Kochia (Kochia (Kochia scoparia) [2]; [19]) | Kochia plant response rating (0 to 100 scale, 0 is no effect, 100 is complete control) (Kochia (Kochia scoparia) [2]; Preemergence) | Plant response rating, Ragweed [3, 21] | Ragweed plant response rating (0 to 100 scale, 0 is no effect, 100 is complete control) ([3]; Preemergence) | Plant response rating, Ryegrass, Italian [4, 21] | Ryegrass, Italian plant response rating (0 to 100 scale, 0 is no effect, 100 is complete control) ([4]; Preemergence) | Plant response rating, Pigweed [5, 21] | Pigweed plant response rating (0 to 100 scale, 0 is no effect, 100 is complete control) ([5]; Preemergence) | Plant response rating, Barnyardgrass ([7]; 250 g ai/ha) | Plant response rating, Rice (rice (Oryra sativa); 250 g ai/ha) | Plant response rating, Sedge, Umbrella ([9]; 250 g ai/ha) | Barnyardgrass plant response rating ([10]; 125 g ai/ha, postemergence) | Kochia plant response rating (Kochia (Kochia scoparia) [11]; 125 g ai/ha, postemergence) | Plant response rating, Kochia (Kochia (Kochia scoparia) [11]; [23]) | Ragweed plant response rating ([12]; 125 g ai/ha, postemergence) | Plant response rating, Ragweed [12, 23] | Ryegrass, Italian plant response rating ([13]; 125 g ai/ha, postemergence) | Plant response rating, Ryegrass, Italian [13, 23] | Pigweed plant response rating ([14]; 125 g ai/ha, postemergence) | Plant response rating, Pigweed [14, 23] | Blackgrass plant response rating ([15]; 125 g ai/ha, postemergence) | Corn plant response rating (corn (Zea mays); 125 g ai/ha, postemergence) | Plant response rating, Corn (corn (Zea mays); [20]) | Wheat plant response rating ([16]; 125 g ai/ha, postemergence) | Galium plant response rating ([17]; 125 g ai/ha, postemergence) | Plant response rating, Galium [17, 23] | Foxtail, Giant plant response rating ([18]; 125 g ai/ha, postemergence)
60: Plant response rating, Foxtail, Giant [18, 23]
40: Plant response rating, Blackgrass [15, 20] | Plant response rating, Wheat [16, 23]
